Assay results: US12496290B2, “Method and compounds for treating or preventing autoimmune disorders or immune responses modulated by the expression of IDO1” (The Trustees of Princeton University, priority 2019, dated 2025)

Tests used:
IDO1 = IDO1 (Homo sapiens, UniProt P14902); experiment: IDO1 activity assay, N-formylkynurenine absorbance at 321 nm; type: biochemical
Method: FIG. 6 reflects a system involving IDO1 (50 nM), 0.1 mM L-tryptophan, and 5 mM glutathione in 100 mM sodium phosphate, pH 7.0 with <1 μM 6-chloro-5-fluoro-1H-indole-3-thiol.
The activity of the compounds was determined as follows. UV—vis spectra were recorded using a Hewlett-Packer 8453 diode array spectrophotometer. Activity assays were done at room temperature using 100 mM sodium phosphate, pH 7.0, with 500 nM IDO1 (ε404 nm=172 mM^−1 cm^−1) and 50 μM L-tryptophan. These were initiated by addition of IDO1, and activity was monitored at 321 nm where product N-formylkynurenine absorbs (ε321 nm=3750 M^−1 cm^−1).
The substituted indole compound was prepared daily in a 100 mM stock solution in dimethyl sulfoxide (DMSO), and this was serially diluted to maintain a consistent final concentration of 1% (v/v) DMSO in each assay. To maintain activity, 5 mM reduced glutathione was added to some of these from a 0.5 M stock solution. The substituted indole compound was generally tested from 100 nM to 10 μM. The ability of each compound to serve as a reducing substrate for IDO1 was fit using a Michaelis—Menten equation. […] Above 5 μM 3MI, there was a steep inhibitory effect.

ferric IDO1 = ferric IDO1 (Homo sapiens, UniProt P14902); experiment: Stopped-flow UV-vis spectrometry of binding to ferric IDO1
Method: FIG. 3 is a graph showing the second-order rate constant of 3MI binding to ferric IDO1 determined by stopped-flow spectrometry.
FIG. 4 is a graph showing stopped-flow UV—vis spectrometry of 3MI (30 μM) binding to IDO1 (1.4 μM) over 0.2 s.
3-Mercaptoindole (3MI) was seen to bind to IDO1 with a fast on-rate of 1.7×10^6 M^−1 s^−1 under pseudo-first-order conditions (See FIG. 3), producing a UV—vis spectrum (see FIG. 4) that has a Soret at 424 nm, a lower peak at 321 nm, and broad q-bands at 537 nm and a shoulder at about 575 nm. […] Note that although 3MI is referred to here, similar results can be seen with other substituted indole compounds disclosed herein.
Using 3MI, there was an initial burst of IDO1 activity, which leveled off after 500 s, well before substrate tryptophan was consumed (FIG. 2, 202). Reduced glutathione was added to the activity assay solutions at nearly cellular concentrations (5 mM) to reduce any oxidized 3MI-disulfide products that may have formed, and this allowed for sustained 3MI-induced IDO1 activity (FIG. 2, 201).

ferric-superoxo IDO1 = ferric-superoxo IDO1 (Homo sapiens, UniProt P14902); experiment: Double-mixing stopped-flow spectrometry with ferric-superoxo IDO1; type: biochemical; settings: lowest 3MI concentration useful for pseudo-first-order conditions; nearly within instrument mixing time
Method: The nature of substituted indole compound-inhibition at high concentrations (>5 μM) was examined further with ferric-superoxo IDO1, the active tryptophan-oxidizing species. Ferric-superoxo IDO1 was generated using double-mixing stopped-flow spectrometry by mixing IDO1 prereduced with 2 mM sodium dithionite into aerobic buffer for 0.5 s. This ferric superoxo species was then mixed in the second push with 3MI that had been maintained in the reduced state using 5 mM glutathione. 3MI readily reacted with ferric-superoxo IDO1 to form ferric IDO1 without any observable intermediates. This was shown by a fast shift from the ferric-superoxo complex (λmax 415 nm) to the ferric (λmax 404 nm) that was completed nearly within the mixing time of the instrument (<10 ms) even at the lowest concentration of 3MI useful for pseudo-first-order reaction conditions (where 3MI must be at a large excess over IDO1). Following this fast conversion to ferric IDO1, there was a slower shift to the ferric 3MI-bound complex as indicated by the Soret shifting to 424 nm (as in FIG. 4). To account for both reactions, these traces were fit using a double exponential expression.

myoglobin = experiment: Heme protein selectivity, stopped-flow UV-vis: myoglobin; type: biochemical; settings: pseudo-first-order conditions
Method: (§1) Since hydrogen sulfide and polysulfides are known to react with other heme proteins, the selectivity of 3MI for IDO1 was examined by mixing the substituted indole compounds (such as 3MI) with several other heme proteins and observing their reactions using stopped-flow UV—vis spectrometry.
(§2) The substituted indole compounds had no effect on catalase even at 250 μM, whereas the substituted indole compounds did appear to reduce myoglobin and hemoglobin, producing their oxygen-bound forms. The substituted indole compound were also able to reduce ferric cytochrome c to its distinctive ferrous form. The second-order rate constants of these reactions were determined under pseudo-first-order conditions giving 6.6×10^3, 1.6×10^4, and 2.7×10^5 M^−1 s^−1 for myoglobin, hemoglobin, and cytochrome c, respectively. […] Unlike myoglobin and hemoglobin, the oxy-form of IDO1 was not observed due to the relatively slow reduction of IDO1 by 3MI.

hemoglobin = experiment: Heme protein selectivity, stopped-flow UV-vis: hemoglobin; type: biochemical; settings: pseudo-first-order conditions
Method: as §1, §2

ferric cytochrome c = experiment: Heme protein selectivity, stopped-flow UV-vis: cytochrome c; type: biochemical; settings: pseudo-first-order conditions
Method: as §1, §2

Sequence of IDO1 (P14902 whole entry): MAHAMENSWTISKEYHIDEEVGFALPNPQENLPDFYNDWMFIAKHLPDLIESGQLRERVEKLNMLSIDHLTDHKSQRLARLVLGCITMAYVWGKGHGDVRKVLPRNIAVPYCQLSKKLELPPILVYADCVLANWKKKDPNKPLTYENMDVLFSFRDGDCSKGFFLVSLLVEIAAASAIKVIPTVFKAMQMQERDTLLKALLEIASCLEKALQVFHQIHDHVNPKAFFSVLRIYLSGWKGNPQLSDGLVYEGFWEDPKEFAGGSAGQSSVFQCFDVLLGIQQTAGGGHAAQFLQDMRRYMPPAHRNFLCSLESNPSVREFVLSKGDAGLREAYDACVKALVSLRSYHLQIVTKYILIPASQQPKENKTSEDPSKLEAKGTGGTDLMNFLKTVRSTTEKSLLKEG
Sequence of ferric IDO1 (P14902 whole entry): as above
Sequence of ferric-superoxo IDO1 (P14902 whole entry): as above

concentration above which there was a steep inhibitory effect on IDO1 activity (IDO1) | 3MI-induced IDO1 activity with glutathione (IDO1; 5 mM reduced glutathione added (FIG. 2, 201)) | time after which the initial burst of IDO1 activity leveled off (IDO1; 3MI without glutathione (FIG. 2, 202), before tryptophan was consumed) [s] | Ki (IDO1; single exponential fit of the inhibitory region at higher concentrations, read-out: Ki app (apparent Ki at half-activity)) [µM] | selectivity: IDO1 binding rate constant exceeding that of the cytochrome c reduction (ferric IDO1; IDO1 versus cytochrome c) | kon (ferric IDO1; pseudo-first-order conditions, stopped-flow, ferric IDO1, read-out: on-rate / second-order rate constant of binding to IDO1) [M⁻¹ s⁻¹] | time to complete the shift from ferric-superoxo complex to ferric IDO1 (ferric-superoxo IDO1) [ms] | IDO1 activity, product N-formylkynurenine absorbance at 321 nm over time (FIG. 6) (IDO1; IDO1 50 nM, 0.1 mM L-tryptophan, 5 mM glutathione, 100 mM sodium phosphate pH 7.0, <1 μM compound, background subtracted) | Compound | activation of IDO1 (IDO1; FIG. 2) | second-order rate constant of reaction (reduction) with myoglobin (myoglobin) [M⁻¹ s⁻¹] | second-order rate constant of reaction (reduction) with hemoglobin (hemoglobin) [M⁻¹ s⁻¹] | second-order rate constant of reaction (reduction) with cytochrome c (ferric cytochrome c) [M⁻¹ s⁻¹]
Above 5 μM | sustained | 500 | 8 ± 3 | an order of magnitude | 1.7e+06 | < 10 |  | Sc1c[nH]c2ccccc12 [3MI, 3-Mercaptoindole] | inducing turnover even at nM concentrations | 6600 | 16000 | 270000
 |  |  |  |  |  |  | increase in absorbance | Fc1cc2c(S)c[nH]c2cc1Cl [6-chloro-5-fluoro-1H-indole-3-thiol] |  |  |  | 
